“Also recorded” adds a separate entry of the source. Read-outs that look alike come from different tables or passages of the source. Bridge positions count the residues as written; N and C are the ends. Square brackets hold non-standard residues; d marks the D form. Ends that are not written are not given here. Peptide text beside a SMILES is read from it.
Tests used:
[1] = system: S. epidermidis Group-I RP62A biofilm; details: for IC50: read-out: IC50 of biofilm growth inhibition, 24 h static, CV staining
Experimental: (§1) Biological reagents, strains, and general methods. All standard reagents were purchased from commercial sources and used according to enclosed instructions. The S. epidermidis fluorescence reporter strains AH3408 (Group-I), AH3567 (Group-II), and AH3409 (Group-III) were cultured in Tryptic Soy Broth (TSB, from Sigma) augmented with 10 μg/mL of erythromycin (36). The S. epidermidis wild-type strain RP62A (Group-I) was cultured in TSB (from Sigma or EMD Millipore). The S. aureus fluorescence reporter strains AH1677 (Group-I), AH430 (Group-II), AH1747 (Group-III), and AH1872 (Group-IV) were cultured in Brain Heart Infusion (BHI, from Teknova) augmented with 10 μg/mL of chloramphenicol (65). All cultures were grown at 37° C. with shaking (200 rpm) unless noted otherwise. Absorbance and fluorescence measurements were obtained using a Biotek Synergy 2 microplate reader operating Gen5 data analysis software. IC50 values and EC50 values were determined from sigmoidal curve fits using GraphPad Prism software (v. 6.0).
Crystal violet biofilm assay protocol. […] Each solution was tested in triplicate.

AgrC-III = details: for IC50 against AgrC-III, in words: dose response antagonism assay, FIGS. 3A/3B; for Activity toward Group-III at lower concentration, in words: single concentration 100 nM (or 1 μM); for Activity against Group-III, in words: single concentration 10 μM
Text: (§2) However, the biological significance of this agr interference remains unclear, although it has been hypothesized to potentially play a role in competition between different groups in a mixed bacteria milieu (18). […] To this end, the AIP analogs discussed above were screened in GFP reporter strains of Groups-II and -III S. epidermidis to complement the Group-I S. epidermidis data in Tables 1 and 2 (see Methods; FIGS. 7A and 7B).
as §1
(§3) Fluorescence reporter assay protocol. […] Each peptide solution was tested in triplicate. […] Plates were then incubated at 37° C. for 24 h. Fluorescence (EX 500 nm/EM 540 nm) and OD600 of each well was measured using a plate reader, and the fluorescence values were normalized to the DMSO control.
(§4) The remaining steps of the fluorescence assay were the same as above.

AgrC-II = details: for IC50 against AgrC-II, in words: dose response antagonism assay, FIGS. 3A/3B; for Activity toward Group-II at lower concentration, in words: single concentration 100 nM (or 1 μM); for Mode/strength of activity toward AgrC-II (Group II), in words: dose response; for potency estimated from few doses: single replicate dose response, Table 3
Text: as §2, §1, §3, §4

AgrC-I receptor [2] = molecular target: T1, AgrC-I receptor (Staphylococcus epidermidis, UniProt Q5HMY3); experiment: cell-based; format: cell-based, S. epidermidis; details: for Mode/strength of activity toward AgrC-I (Group I), in words: dose response; for Activity toward Group-I at lower concentration, in words: single concentration 100 nM (or 1 μM); for EC50 in AgrC-I: activation dose response in the presence of 50 nM S. epidermidis AIP-II; for IC50 in AgrC-I: antagonism dose response, peptide alone, Group-I GFP reporter strain, 24 h
T1 sequence (Q5HMY3 entry or part of it): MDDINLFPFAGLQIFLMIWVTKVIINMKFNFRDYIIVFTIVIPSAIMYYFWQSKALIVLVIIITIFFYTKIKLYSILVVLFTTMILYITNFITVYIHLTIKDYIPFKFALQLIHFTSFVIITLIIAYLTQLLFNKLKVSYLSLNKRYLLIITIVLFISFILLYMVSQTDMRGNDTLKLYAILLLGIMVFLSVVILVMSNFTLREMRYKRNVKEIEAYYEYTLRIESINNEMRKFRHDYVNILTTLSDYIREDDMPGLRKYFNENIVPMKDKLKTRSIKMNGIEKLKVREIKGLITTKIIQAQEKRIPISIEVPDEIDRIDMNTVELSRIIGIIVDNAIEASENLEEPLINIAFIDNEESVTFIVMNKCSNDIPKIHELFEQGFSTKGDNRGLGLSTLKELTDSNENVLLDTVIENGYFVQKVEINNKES
Experimental: The initial set of 14 analogs (listed in Table 1) was synthesized using solid-phase peptide chemistry and purified to homogeneity using previously established HPLC methods (59). Each analog was tested for its ability to modulate the activity of the AgrC-I receptor using a wild-type S. epidermidis Group-I fluorescence reporter strain. This strain contained a reporter plasmid encoding a gfp gene fused to the P3 promoter found upstream of RNAIII (36).
as §1, §3, §4

[3] = system: AgrC I-IV receptors in S. aureus Groups-I-IV; experiment: Fluorescence (GFP) reporter strain assays, S. aureus Groups-I-IV; format: cell-based; details: 100 nM unless noted
Text: (§5) Similar to the cross-group inhibition observed between different agr groups of the same species, this cross-species inhibitory effect has no known biological role, but is hypothesized to provide a competitive advantage on a host (18, 46). Thus, AIP analogs described herein were examined to identify potential species-specific inhibitors that target either S. epidermidis Group-I or S. aureus Groups-I-IV.
as §1, with “The S. epidermidis wild-type strain RP62A (Group-I) was cultured in TSB (from Sigma or EMD Millipore).” left out, “All cultures were grown at 37° C. with shaking (200 rpm) unless noted otherwise.” left out
(§6) Fluorescence reporter assay protocol. […]
as §4

[4] = system: agr system of S. aureus Group-III; experiment: Fluorescence (GFP) reporter strain assay, S. aureus Group-III; format: cell-based; details: 100 nM unless noted
Text: as §5
as §1, with “The S. epidermidis wild-type strain RP62A (Group-I) was cultured in TSB (from Sigma or EMD Millipore).” left out, “All cultures were grown at 37° C. with shaking (200 rpm) unless noted otherwise.” left out
as §6, §4

AgrC-I receptor [5] = molecular target: T1, AgrC-I receptor; format: cell-based, S. epidermidis; details: single replicate dose response, Table 3
[6] = read-out: AgrC-II: IC50 (estimated)
[7] = read-out: AgrC-I: IC50 (estimated)
[8] = read-out: AgrC-II: EC50 (estimated)
[9] = read-out: AgrC-I: EC50 (estimated)

CC(C)[C@H](NC(=O)[C@H](CO)NC(=O)[C@H](C)N)C(=O)N[C@H]1CSC(=O)[C@H](Cc2ccccc2)NC(=O)[C@H](Cc2ccc(O)cc2)NC(=O)[C@H](C)NC(=O)[C@H](C)NC1=O [AIP-I D1AS6A, A-S-V-(C-A-A-Y-F)] (H-ASVCAAYF; thioester 4-C)
IC50 [1]: 0.018 µM

C[C@H](N)C(=O)N[C@@H](CO)C(=O)N[C@@H](C)C(=O)N[C@H]1CSC(=O)[C@H](Cc2ccccc2)NC(=O)[C@H](Cc2ccc(O)cc2)NC(=O)[C@H](C)NC(=O)[C@H](C)NC1=O [AIP-I D1AS6AV3A, A-S-A-(C-A-A-Y-F)] (H-ASACAAYF; thioester 4-C)
IC50 against AgrC-III, in words (AgrC-III): subnanomolar to low nanomolar range
Activity toward Group-III at lower concentration, in words (AgrC-III): strongly inhibited
IC50 against AgrC-II, in words (AgrC-II): subnanomolar to low nanomolar range
Activity toward Group-II at lower concentration, in words (AgrC-II): strongly inhibited

C[C@H](N)C(=O)N[C@@H](CO)C(=O)N[C@@H](C)C(=O)N[C@H]1CSC(=O)[C@H](Cc2ccccc2)NC(=O)[C@H](Cc2ccc(O)cc2)NC(=O)[C@H](C)NC(=O)[C@H](CO)NC1=O [AIP-I D1AS6AV3AA5S, A-S-A-(C-S-A-Y-F)] (H-ASACSAYF; thioester 4-C)
Mode/strength of activity toward AgrC-I (Group I), in words (AgrC-I receptor [2]): analogous potency as the parent triple mutant
IC50 against AgrC-III, in words (AgrC-III): subnanomolar to low nanomolar range
Activity toward Group-III at lower concentration, in words (AgrC-III): strongly inhibited
IC50 against AgrC-II, in words (AgrC-II): subnanomolar to low nanomolar range
Activity toward Group-II at lower concentration, in words (AgrC-II): strongly inhibited
Effect on biofilm growth, in words ([1]; 10 μM, 24 h): did not increase biofilm growth

CC(C)[C@@H](NC(=O)[C@H](CO)NC(=O)[C@@H](N)CC(=O)O)C(=O)N[C@H]1CSC(=O)[C@H](Cc2ccccc2)NC(=O)[C@H](Cc2ccc(O)cc2)NC(=O)[C@H](CO)NC(=O)[C@H](C)NC1=O [AIP-I D-V3, D-S-DV-(C-A-S-Y-F)] (H-DS[dV]CASYF; thioester 4-C)
Activity toward Group-I at lower concentration, in words (AgrC-I receptor [2]): lost its inhibitory activity
Activity toward Group-III at lower concentration, in words (AgrC-III): remained an antagonist
Activity toward Group-II at lower concentration, in words (AgrC-II): remained an antagonist

CC(C)[C@H](NC(=O)[C@H](CO)NC(=O)[C@@H](N)CC(=O)O)C(=O)N[C@H]1CSC(=O)[C@H](Cc2ccccc2)NC(=O)[C@H](Cc2ccc(O)cc2)NC(=O)[C@H](CO)NC(=O)[C@H](C)NC1=O [AIP-I, D-S-V-(C-A-S-Y-F), reference compound] (H-DSVCASYF; thioester 4-C)
IC50 [1]: 0.099 µM

CC(C)C[C@@H]1NC(=O)[C@H](Cc2ccc(O)cc2)NC(=O)[C@H](CC(N)=O)NC(=O)[C@H](CO)NC(=O)[C@@H](NC(=O)[C@@H]2CCCN2C(=O)[C@H](CC(N)=O)NC(=O)[C@@H](N)Cc2ccc(O)cc2)CSC1=O [AIP-II 8aa, Y-N-P-(C-S-N-Y-L)] (H-YNPCSNYL; thioester 4-C)
Mode/strength of activity toward AgrC-I (Group I), in words (AgrC-I receptor [2]): potency similar to the parent AIP-II
inhibition at 10 µM (AgrC-I receptor [2]; read-out: Inhibition of AgrC-I (inhibiting to ~%)): ~75%
Activity toward Group-I at lower concentration, in words (AgrC-I receptor [2]): remained active; also recorded: selectively inhibited
Activity against Group-III, in words (AgrC-III): inactive
Activity toward Group-II at lower concentration, in words (AgrC-II): inhibitory activity against Group-II decreased
Effect on agr activity in S. aureus Groups-I-IV, in words [3]: without significantly affecting agr activity

CC(C)C[C@@H]1NC(=O)[C@H](Cc2ccc(O)cc2)NC(=O)[C@H](CC(N)=O)NC(=O)[C@H](CO)NC(=O)[C@@H](NC(=O)[C@@H]2CCCN2C(=O)[C@H](CC(N)=O)NC(=O)[C@H](Cc2ccc(O)cc2)NC(=O)[C@@H](N)CCCCN)CSC1=O [AIP-II 9aa, K-Y-N-P-(C-S-N-Y-L)] (H-KYNPCSNYL; thioester 5-C)
Activity toward Group-I at lower concentration, in words (AgrC-I receptor [2]): inhibited; also recorded: largely an inhibitor specific to S. epidermidis Group-I
Activity toward Group-III at lower concentration, in words (AgrC-III): inactive
Activity toward Group-II at lower concentration, in words (AgrC-II): highly active agonist
Inhibitory activity in S. aureus Group-III, in words [4]: weak inhibitory activity

CC(=O)N[C@H]1CSC(=O)[C@H](CC(C)C)NC(=O)[C@H](Cc2ccc(O)cc2)NC(=O)[C@H](CC(N)=O)NC(=O)[C@H](CO)NC1=O [tAIP-II, Ac-(C-S-N-Y-L)] (Ac-CSNYL; thioester 1-C)
Mode/strength of activity toward AgrC-I (Group I), in words (AgrC-I receptor [2]): dramatic reduction in inhibitory activity
Activity against Group-III, in words (AgrC-III): inactive

I-N-(C-A-F-L-L) (INCAFLL; bridge 3-C; also: thiolactone between Cys3 side chain and C-terminus) [S. aureus AIP-III D4A, reference compound]
EC50 in AgrC-I (AgrC-I receptor [2]): Inactive^c
IC50 in AgrC-I (AgrC-I receptor [2]): Inactive^c
Mode/strength of activity toward AgrC-I (Group I), in words (AgrC-I receptor [2]): largely inactive
Activity toward Group-I at lower concentration, in words (AgrC-I receptor [2]): inactive
Activity toward Group-II at lower concentration, in words (AgrC-II): inhibiting exclusively Group-II
Effect on agr activity in S. aureus Groups-I-IV, in words [3]: potent pan-group inhibitor

KYLPCSNYL [AIP-II 9aa N3L, K-Y-L-P-C-S-N-Y-L]
Mode/strength of activity toward AgrC-I (Group I), in words (AgrC-I receptor [2]): antagonist
Mode/strength of activity toward AgrC-II (Group II), in words (AgrC-II): antagonist
potency estimated from few doses (AgrC-II; [6]): 0.0707 µM
potency estimated from few doses (AgrC-I receptor [5]; [7]): 0.0094 µM

KYNVCANYL [AIP-II 9aa P4V S6A, K-Y-N-V-C-A-N-Y-L]
Mode/strength of activity toward AgrC-I (Group I), in words (AgrC-I receptor [2]): inactive
potency estimated from few doses (AgrC-II; [8]): > 7 µM

KYNVCSAYL [AIP-II 9aa P4V N7A, K-Y-N-V-C-S-A-Y-L]
Mode/strength of activity toward AgrC-I (Group I), in words (AgrC-I receptor [2]): activating; also recorded: agonist
potency estimated from few doses (AgrC-II; [8]): > 0.6 µM
potency estimated from few doses (AgrC-I receptor [5]; [9]): > 1.2 µM

KYNVCSNYL [AIP-II 9aa P4V, K-Y-N-V-C-S-N-Y-L]
Mode/strength of activity toward AgrC-I (Group I), in words (AgrC-I receptor [2]): antagonist
potency estimated from few doses (AgrC-II; [8]): 0.114 µM
potency estimated from few doses (AgrC-I receptor [5]; [7]): 0.045 µM

KYNVCSSYL [AIP-II 9aa P4V N7S, K-Y-N-V-C-S-S-Y-L]
Mode/strength of activity toward AgrC-I (Group I), in words (AgrC-I receptor [2]): switched; also recorded: antagonist
potency estimated from few doses (AgrC-II; [6]): 0.0065 µM
potency estimated from few doses (AgrC-I receptor [5]; [9]): > 1.8 µM

KYVPCSNYL [AIP-II 9aa N3V, K-Y-V-P-C-S-N-Y-L]
Mode/strength of activity toward AgrC-I (Group I), in words (AgrC-I receptor [2]): antagonist
Mode/strength of activity toward AgrC-II (Group II), in words (AgrC-II): antagonist
potency estimated from few doses (AgrC-II; [6]): 0.108 µM
potency estimated from few doses (AgrC-I receptor [5]; [7]): 0.0041 µM

Y-S-T-(C-D-F-I-M) (YSTCDFIM; bridge 4-C) [S. aureus AIP-I, reference compound]
EC50 in AgrC-I (AgrC-I receptor [2]): Inactive^c
IC50 in AgrC-I (AgrC-I receptor [2]): Inactive^c

— patent US12662513B2, “Peptidic modulators of quorum sensing in Staphylococcus epidermidis” (priority 2016, dated 2026)
